pIC50: −log10 of the molar value.
biological target: ROCK2 (human) (UniProt O75116); test: Assessment of ROCK2 Kinase Activity
Sequence (O75116 whole entry, looked up): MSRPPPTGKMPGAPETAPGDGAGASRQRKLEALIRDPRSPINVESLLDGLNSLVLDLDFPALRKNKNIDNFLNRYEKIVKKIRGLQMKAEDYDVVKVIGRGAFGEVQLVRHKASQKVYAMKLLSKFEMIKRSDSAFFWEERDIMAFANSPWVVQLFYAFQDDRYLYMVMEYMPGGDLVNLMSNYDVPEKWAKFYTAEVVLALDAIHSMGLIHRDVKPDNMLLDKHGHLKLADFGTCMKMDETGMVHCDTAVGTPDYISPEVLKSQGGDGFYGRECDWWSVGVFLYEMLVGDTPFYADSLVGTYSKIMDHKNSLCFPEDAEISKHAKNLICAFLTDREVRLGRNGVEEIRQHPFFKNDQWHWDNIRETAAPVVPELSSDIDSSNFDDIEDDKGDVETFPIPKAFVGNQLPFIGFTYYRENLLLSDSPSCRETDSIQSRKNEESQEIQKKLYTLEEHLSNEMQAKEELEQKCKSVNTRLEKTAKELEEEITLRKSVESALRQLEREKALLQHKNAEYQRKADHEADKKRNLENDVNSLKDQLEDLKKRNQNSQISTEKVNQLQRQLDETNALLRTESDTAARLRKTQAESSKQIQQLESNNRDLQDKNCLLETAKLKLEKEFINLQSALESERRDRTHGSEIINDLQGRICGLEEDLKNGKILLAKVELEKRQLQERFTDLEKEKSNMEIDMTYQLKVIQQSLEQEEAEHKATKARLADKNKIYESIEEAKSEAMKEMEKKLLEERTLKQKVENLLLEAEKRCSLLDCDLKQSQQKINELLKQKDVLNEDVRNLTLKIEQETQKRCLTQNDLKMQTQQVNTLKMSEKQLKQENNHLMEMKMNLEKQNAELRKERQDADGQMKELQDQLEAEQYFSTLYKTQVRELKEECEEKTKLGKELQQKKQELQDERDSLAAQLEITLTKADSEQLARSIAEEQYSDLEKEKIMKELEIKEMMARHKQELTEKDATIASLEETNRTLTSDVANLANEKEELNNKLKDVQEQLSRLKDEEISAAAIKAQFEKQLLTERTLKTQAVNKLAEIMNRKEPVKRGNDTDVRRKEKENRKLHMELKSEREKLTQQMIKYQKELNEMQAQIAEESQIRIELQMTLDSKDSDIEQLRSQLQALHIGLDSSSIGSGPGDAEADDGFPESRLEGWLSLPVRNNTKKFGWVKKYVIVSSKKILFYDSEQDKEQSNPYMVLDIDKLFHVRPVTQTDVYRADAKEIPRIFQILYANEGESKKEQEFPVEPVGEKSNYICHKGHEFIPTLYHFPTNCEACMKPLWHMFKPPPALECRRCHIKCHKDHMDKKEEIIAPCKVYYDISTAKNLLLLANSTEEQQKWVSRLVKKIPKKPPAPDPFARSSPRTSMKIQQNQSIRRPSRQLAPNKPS

Compound	pIC50
O=c1[nH]ccc2cc(N[C@H]3CCN(CC4CC4)C3)ccc12	≥ 6.00
Cc1ccc(CN2CC[C@H](Nc3ccc4c(=O)[nH]ccc4c3)C2)cc1	≥ 6.00
O=c1[nH]ccc2cc(N[C@@H]3CCCN(Cc4ccccc4)C3)ccc12	≥ 6.00
Clc1cc2cnccc2cc1SC1CCCNC1 (stereo not given)	≥ 6.00
O=c1[nH]ccc2cc(N[C@H]3CCN(Cc4ccc5ccccc5c4)C3)ccc12	≥ 6.00
CC(C)CCN1CCC[C@@H](Nc2ccc3c(=O)[nH]ccc3c2)C1	≥ 6.00
O=c1[nH]ccc2cc(NC3CN(Cc4ccccc4Cl)C3)ccc12	≥ 6.00
O=c1[nH]ccc2cc(N[C@@H]3CCCN(Cc4ccc5ccccc5c4)C3)ccc12	≥ 6.00
O=c1[nH]ccc2cc(N[C@H]3CCN(Cc4cccc(Cl)c4F)C3)ccc12	≥ 6.00
O=c1[nH]ccc2cc(SC3CCNCC3)c(Cl)cc12	≥ 6.00
O=c1[nH]ccc2cc(S(=O)(=O)C3CCNCC3)c(Cl)cc12	≥ 6.00
CCCCN1CCC[C@@H](Nc2ccc3c(=O)[nH]ccc3c2)C1	≥ 6.00
CCCc1cc2cnccc2cc1SC1CCNCC1	≥ 6.00
Brc1cc2cnccc2cc1SC1CCCNCC1 (stereo not given)	≥ 6.00
O=c1[nH]ccc2cc(NC3CN(Cc4cccc(Cl)c4F)C3)ccc12	≥ 6.00

— the Kinase Knowledgebase extract (Sharma et al. 2016)
